This note sets out measurements from article PMC4770306, “Structure-Based Identification of Inhibitory Fragments Targeting the p300/CBP-Associated Factor Bromodomain” (Journal of Medicinal Chemistry, 2016).

Molecules are shown by their SMILES.

Common to all, as to format: binding
One test concerns the target T1, BRPF3A (Homo sapiens, UniProt Q9ULD4).
T1 sequence (Q9ULD4 1-1205): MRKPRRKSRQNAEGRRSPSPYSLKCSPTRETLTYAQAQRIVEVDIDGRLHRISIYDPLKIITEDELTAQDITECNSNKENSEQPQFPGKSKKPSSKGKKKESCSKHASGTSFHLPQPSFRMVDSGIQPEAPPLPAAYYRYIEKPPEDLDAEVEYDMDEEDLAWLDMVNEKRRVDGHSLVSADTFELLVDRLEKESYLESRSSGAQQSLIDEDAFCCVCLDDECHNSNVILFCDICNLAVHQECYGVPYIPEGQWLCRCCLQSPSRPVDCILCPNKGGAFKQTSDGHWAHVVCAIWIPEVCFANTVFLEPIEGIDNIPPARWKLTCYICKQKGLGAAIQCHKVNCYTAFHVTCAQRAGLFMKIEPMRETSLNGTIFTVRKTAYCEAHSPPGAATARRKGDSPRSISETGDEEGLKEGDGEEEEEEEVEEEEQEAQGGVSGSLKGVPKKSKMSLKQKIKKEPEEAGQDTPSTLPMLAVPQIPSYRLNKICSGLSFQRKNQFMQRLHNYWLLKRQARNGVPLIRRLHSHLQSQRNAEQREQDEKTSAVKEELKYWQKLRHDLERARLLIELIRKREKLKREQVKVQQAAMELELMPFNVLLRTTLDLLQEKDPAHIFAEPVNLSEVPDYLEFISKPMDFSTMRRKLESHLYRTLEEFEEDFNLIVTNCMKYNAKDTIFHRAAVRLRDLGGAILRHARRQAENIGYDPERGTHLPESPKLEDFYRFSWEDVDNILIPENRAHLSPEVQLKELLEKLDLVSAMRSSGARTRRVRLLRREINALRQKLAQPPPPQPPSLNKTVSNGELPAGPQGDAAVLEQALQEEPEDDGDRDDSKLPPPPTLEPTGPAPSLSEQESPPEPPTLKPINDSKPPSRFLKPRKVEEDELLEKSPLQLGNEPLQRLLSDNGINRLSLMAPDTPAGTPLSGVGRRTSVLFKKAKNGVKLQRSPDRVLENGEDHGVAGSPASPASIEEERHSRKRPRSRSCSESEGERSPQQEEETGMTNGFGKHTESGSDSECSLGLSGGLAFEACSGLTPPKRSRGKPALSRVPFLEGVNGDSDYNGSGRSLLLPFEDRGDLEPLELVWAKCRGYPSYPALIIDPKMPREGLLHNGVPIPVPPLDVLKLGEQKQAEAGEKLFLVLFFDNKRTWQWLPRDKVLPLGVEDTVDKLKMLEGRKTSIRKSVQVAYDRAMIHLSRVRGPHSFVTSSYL
As to the kind of experiment: Alphascreen assay BRPF3A. For orientation: Bead proximity is the source of the signal in Alpha formats.

The target of another test is T2, BAZ1BA (Homo sapiens, UniProt Q9UIG0).
T2 sequence (Q9UIG0 1-1483): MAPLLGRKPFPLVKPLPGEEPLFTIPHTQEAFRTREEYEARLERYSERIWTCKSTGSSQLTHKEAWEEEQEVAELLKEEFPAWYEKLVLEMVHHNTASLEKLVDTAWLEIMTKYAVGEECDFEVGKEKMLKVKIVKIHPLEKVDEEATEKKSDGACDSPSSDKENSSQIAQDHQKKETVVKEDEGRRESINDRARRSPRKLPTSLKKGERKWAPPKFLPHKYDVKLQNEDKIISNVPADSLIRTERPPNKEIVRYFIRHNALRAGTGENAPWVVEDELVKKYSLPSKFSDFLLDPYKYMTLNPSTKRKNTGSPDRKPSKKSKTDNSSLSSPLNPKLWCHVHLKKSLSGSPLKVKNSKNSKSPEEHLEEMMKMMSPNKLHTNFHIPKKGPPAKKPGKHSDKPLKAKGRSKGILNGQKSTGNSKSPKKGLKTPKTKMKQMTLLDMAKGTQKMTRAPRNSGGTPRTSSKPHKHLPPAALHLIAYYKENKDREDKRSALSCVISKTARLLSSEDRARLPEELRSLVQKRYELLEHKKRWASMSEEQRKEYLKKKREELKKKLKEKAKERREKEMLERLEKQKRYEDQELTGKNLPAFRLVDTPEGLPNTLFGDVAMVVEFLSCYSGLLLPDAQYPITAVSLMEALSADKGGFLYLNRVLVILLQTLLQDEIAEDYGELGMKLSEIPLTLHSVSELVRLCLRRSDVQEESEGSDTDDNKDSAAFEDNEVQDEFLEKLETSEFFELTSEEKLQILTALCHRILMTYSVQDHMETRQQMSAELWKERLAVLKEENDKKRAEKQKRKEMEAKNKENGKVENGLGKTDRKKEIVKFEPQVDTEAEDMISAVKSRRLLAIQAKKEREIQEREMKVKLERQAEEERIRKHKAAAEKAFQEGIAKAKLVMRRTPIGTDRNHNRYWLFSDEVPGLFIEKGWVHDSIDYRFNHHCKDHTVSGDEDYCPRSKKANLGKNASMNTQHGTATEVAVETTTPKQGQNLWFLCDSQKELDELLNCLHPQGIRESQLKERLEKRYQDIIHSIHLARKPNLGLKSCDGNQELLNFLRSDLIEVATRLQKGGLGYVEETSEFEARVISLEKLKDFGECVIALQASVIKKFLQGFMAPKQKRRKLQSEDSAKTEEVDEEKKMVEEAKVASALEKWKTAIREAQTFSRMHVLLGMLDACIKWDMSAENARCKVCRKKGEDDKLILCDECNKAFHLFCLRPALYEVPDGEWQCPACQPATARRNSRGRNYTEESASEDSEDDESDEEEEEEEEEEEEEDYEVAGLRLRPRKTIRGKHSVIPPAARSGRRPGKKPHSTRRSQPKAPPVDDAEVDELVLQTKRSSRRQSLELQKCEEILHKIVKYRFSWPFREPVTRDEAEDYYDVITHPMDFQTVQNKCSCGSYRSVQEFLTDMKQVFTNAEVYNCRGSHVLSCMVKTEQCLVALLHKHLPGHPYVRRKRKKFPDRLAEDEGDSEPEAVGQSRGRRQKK
Briefly: Alphascreen assay BAZ1BA.

A further test deals with CECR2A (Homo sapiens, UniProt Q9BXF3). Briefly: Alphascreen assay CECR2A.
CECR2A, sequence (Q9BXF3 whole entry): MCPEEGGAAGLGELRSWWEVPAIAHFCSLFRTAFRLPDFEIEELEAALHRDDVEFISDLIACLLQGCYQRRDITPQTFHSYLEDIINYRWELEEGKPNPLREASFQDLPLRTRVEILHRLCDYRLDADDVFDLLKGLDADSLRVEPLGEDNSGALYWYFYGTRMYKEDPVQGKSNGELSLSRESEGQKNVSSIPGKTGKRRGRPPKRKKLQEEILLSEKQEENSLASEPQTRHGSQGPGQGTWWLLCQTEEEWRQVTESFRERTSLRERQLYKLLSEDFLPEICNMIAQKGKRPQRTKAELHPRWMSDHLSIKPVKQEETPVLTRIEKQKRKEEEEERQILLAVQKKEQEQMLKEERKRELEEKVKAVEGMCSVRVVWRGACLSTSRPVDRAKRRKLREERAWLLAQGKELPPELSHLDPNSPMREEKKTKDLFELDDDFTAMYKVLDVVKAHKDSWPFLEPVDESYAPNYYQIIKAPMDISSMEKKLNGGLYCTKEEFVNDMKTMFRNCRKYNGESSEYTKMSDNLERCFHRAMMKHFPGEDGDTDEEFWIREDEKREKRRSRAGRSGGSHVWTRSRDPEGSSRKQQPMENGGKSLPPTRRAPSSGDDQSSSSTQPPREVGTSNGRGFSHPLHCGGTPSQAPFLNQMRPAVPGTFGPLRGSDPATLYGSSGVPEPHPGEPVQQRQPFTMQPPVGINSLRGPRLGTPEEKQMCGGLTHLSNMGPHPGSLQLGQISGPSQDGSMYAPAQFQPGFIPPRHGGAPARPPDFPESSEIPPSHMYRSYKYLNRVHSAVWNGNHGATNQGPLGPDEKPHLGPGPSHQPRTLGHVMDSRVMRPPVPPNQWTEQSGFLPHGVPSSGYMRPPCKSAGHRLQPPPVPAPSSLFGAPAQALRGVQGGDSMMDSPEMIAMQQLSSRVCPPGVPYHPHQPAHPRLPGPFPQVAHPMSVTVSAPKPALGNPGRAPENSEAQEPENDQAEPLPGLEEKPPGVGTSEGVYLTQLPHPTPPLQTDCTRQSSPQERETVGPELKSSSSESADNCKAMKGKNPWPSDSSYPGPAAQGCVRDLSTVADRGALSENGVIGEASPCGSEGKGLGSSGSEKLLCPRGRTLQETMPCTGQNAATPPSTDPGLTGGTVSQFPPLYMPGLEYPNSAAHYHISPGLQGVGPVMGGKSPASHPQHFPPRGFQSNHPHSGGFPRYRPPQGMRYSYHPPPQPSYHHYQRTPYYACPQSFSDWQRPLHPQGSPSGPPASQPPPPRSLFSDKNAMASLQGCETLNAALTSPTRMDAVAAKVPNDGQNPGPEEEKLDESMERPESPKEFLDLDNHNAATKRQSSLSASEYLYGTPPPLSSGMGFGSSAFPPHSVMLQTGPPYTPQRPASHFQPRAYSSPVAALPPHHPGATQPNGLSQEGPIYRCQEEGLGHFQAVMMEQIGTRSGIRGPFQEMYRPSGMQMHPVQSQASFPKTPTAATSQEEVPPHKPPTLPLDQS

For `CC(=O)Nc1ccc2c(C)cc(=O)n(C)c2c1` [compound 12, N-(1,4-dimethyl-2-oxo-1,2-dihydroquinolin-7-yl)acetamide], the inhibition at 25 µM on BRPF3A was found to be 46.8%; against BAZ1BA, 0.7%; at CECR2A, 38.7%.
For `Cc1cc(=O)n(C)c2cc(NS(C)(=O)=O)ccc12` [compound 13, N-(1,4-dimethyl-2-oxo-1,2-dihydroquinolin-7-yl)methanesulfonam], in that order: 28.7%, -0.2% and 3.9%.

Usually inhibition stands for the relative decrease from the control value, in per cent.
